Values quoted from earlier work as cited in patent publication US6548087B1, “Nutritional supplement” (priority 1999, dated 2003).

Tested on: libido and performance
Settings: daily use

In the case of `C[C@]12CC[C@H](O)CC1=CC[C@@H]1[C@@H]2CC[C@]2(C)C(=O)CC[C@@H]12` [DHEA, dehydroepiandrosterone], the “effect on libido and performance” value is listed as “increase libido and performance”.
